Experiments:
Type in all cases: cell-based
Details in all cases: liposomes containing 1 mg beta-carotene, 24 hours at 37° C.
Lactobacillus Rhamnosus = experiment: Abscisic acid production by Lactobacillus Rhamnosus culture incubated with liposomes, ABA ELISA
Protocol: (§1) Lyophilized probiotics were grown separately in LB medium in shake-flasks equipped with vented cap at 37° C. for 24 hours. After growth, each probiotic suspension was diluted with LB medium to reach approximately 0.1 O.D. at 600 nm. 3.5 ml of each diluted suspension was added with 500 μl of:
(§2) ii) liposomes containing 1 mg carotene,
(§3) iii) liposomes containing 0.1 mg xanthophyll,
(§4) iv) both liposomes containing carotene and xanthophyll, and
(§5) incubated with shaking at 350 rpm at 37° C. for 24 hours.
(§6) At the end of the incubation, each probiotic suspension was pelleted by centrifugation at 3000×g for 10 minutes. Supernatant was recovered, added with 4 vol of methanol and stored at −20° C. for 24 hours. Pellet was washed once with saline buffer, centrifuged at 3000×g for 10 minutes, resuspended in 2 ml of methanol, sonicated in ice and stored at −20° C. for 24 hours.
(§7) 4 mg of carotene and 0.4 mg of xanthophyll were dissolved each in 200 μl of chloroform by vortexing. For each liposome preparation 200 mg of lecithin were dissolved in 500 μl of chloroform. Both carotene and xanthophyll chloroform solutions were added, separately, to the chloroform lecithin solution, vortexed, and completely dried with N2 to create a thin layer on the inner wall of a glass Corex. […]
(§8) Quantification of abscisic acid (ABA) was performed on both pellets and supernatants obtained as described above (see Bacterial cell culture). […]

Bacillus coagulans = experiment: Abscisic acid (ABA) production by Bacillus coagulans culture incubated with carotenoid liposomes, ABA ELISA
Protocol: Lyophilized probiotics were grown separately in LB medium in shake-flasks equipped with vented cap at 37° C. for 24 hours. After growth, each probiotic suspension was diluted with LB medium to reach approximately 0.1 O.D. at 600 nm. 3.5 ml of each diluted suspension was added with 500 μl of: i) empty liposomes, […] iii) liposomes containing 0.1 mg xanthophyll, iv) both liposomes containing carotene and xanthophyll, and incubated with shaking at 350 rpm at 37° C. for 24 hours. At the end of the incubation, each probiotic suspension was pelleted by centrifugation at 3000×g for 10 minutes. Supernatant was recovered, added with 4 vol of methanol and stored at −20° C. for 24 hours. Pellet was washed once with saline buffer, centrifuged at 3000×g for 10 minutes, resuspended in 2 ml of methanol, sonicated in ice and stored at −20° C. for 24 hours. 4 mg of carotene and 0.4 mg of xanthophyll were dissolved each in 200 μl of chloroform by vortexing. For each liposome preparation 200 mg of lecithin were dissolved in 500 μl of chloroform. Both carotene and xanthophyll chloroform solutions were added, separately, to the chloroform lecithin solution, vortexed, and completely dried with N2 to create a thin layer on the inner wall of a glass Corex. […] Quantification of abscisic acid (ABA) was performed on both pellets and supernatants obtained as described above (see Bacterial cell culture). […]

[1] = tested on: Bacillus coagulans, Lactobacillus Plantarum; experiment: Abscisic acid production by culture of Bacillus coagulans and Lactobacillus Plantarum incubated with liposomes, ABA ELISA
Protocol: as §1, §2, §3, §4, §5, §6, §7, §8

CC1=C(/C=C/C(C)=C/C=C/C(C)=C/C=C/C=C(C)/C=C/C=C(C)/C=C/C2=C(C)CCCC2(C)C)C(C)(C)CCC1 [beta-carotene]
production of abscisic acid, times higher than culture with empty liposomes (FIG. 1C) (Lactobacillus Rhamnosus): about 20 times
production of abscisic acid, times higher than culture with empty liposomes (FIG. 2) (Bacillus coagulans): about 5 times
production of abscisic acid, times higher than culture with empty liposomes (FIG. 1A) (Bacillus coagulans; p=0.0093): about 6.6 times
production of abscisic acid, times higher than culture with empty liposomes (FIG. 1B) [1]: about 7.5 times

From US11207360B2, “Composition for the treatment of dysbiosis of the intestinal microbiota” (NUTRAVIS S.R.L., priority 2017, dated 2021)
